Experimental data taken from patent publication US9108999B2, “2′, 4′-difluoro-2′-methyl substituted nucleoside derivatives as inhibitors of HCV RNA replication” (priority 2011, dated 2015).
Read-outs that look alike come from different tables or passages of the source.

Legend:
[1] = tested on: genotype 1b replicon construct NK5.1 (HCV subgenomic RNA) in Huh7 cell line 2209-23; assay: microbe, parasite or virus in culture; type: cell-based, Hepatitis C Virus; details: read-out: HCV Replicon IC50
in vitro = details: human
[2] = tested on: HCV replicon cells (2209-23); details: read-out: WST-1 Cytotoxicity CC50; replicon cells 2209-23, three days incubation, WST-1 OD 450 nm
[3] = Hepatitis C virus, Huh-7, 72 h, Huh7 replicon cells 2209-23, three days incubation, Renilla luciferase readout
[4] = Huh7 replicon cells 2209-23, three days incubation, Renilla luciferase readout

Row | Compound | IC50 [1, 3] [µM] | CC50 at 3 days (in vitro) [µM] | IC50 ([1]; Hepatitis C virus, Huh-7, 72 h) [µM] | IC50 [1, 4] [µM] | CC50 [2] [µM]
1 | CCC(=O)O[C@H]1[C@@](C)(F)[C@H](n2ccc(=O)[nH]c2=O)O[C@]1(F)COP(=O)(N[C@@H](C)C(=O)OC(C)C)Oc1cccc2ccccc12 (stereo partly drawn) [Compound I-5, (S)-2-[[(2S,3S,4R,5R)-5-(2,4-Dioxo-3,4-dihydro-2H-pyrimidin-1-yl)-2,4-difluoro-4-methyl-3-propionyloxy-tetrahydro-furan-2-ylmethoxy]-(naphthalen-1-yloxy)-phosphorylamino]-propionic acid isopropyl ester] | 0.151 | 67.8 |  |  | 
2 | CC(C)OC(=O)[C@H](C)NP(=O)(OC[C@@]1(F)O[C@@H](n2ccc(=O)[nH]c2=O)[C@](C)(F)[C@@H]1O)Oc1cccc2ccccc12 (stereo partly drawn) [Compound I-2, (S)-2-[[(2S,3S,4R,5R)-5-(2,4-Dioxo-3,4-dihydro-2H-pyrimidin-1-yl)-2,4-difluoro-3-hydroxy-4-methyl-tetrahydro-furan-2-ylmethoxy]-(naphthalen-1-yloxy)-phosphorylamino]-propionic acid isopropyl ester] | 0.115 | > 100 |  |  | 
3 | CC(C)OC(=O)[C@H](C)N[P@](=O)(OC[C@@]1(F)O[C@@H](n2cc(Br)c(=O)[nH]c2=O)[C@](C)(F)[C@@H]1O)Oc1cccc2ccccc12 [Compound I-12, (S)-2-[(S)-[(2S,3S,4R,5R)-5-(5-Bromo-2,4-dioxo-3,4-dihydro-2H-pyrimidin-1-yl)-2,4-difluoro-3-hydroxy-4-methyl-tetrahydro-furan-2-ylmethoxy]-(naphthalen-1-yloxy)-phosphorylamino]-propionic acid isopropyl ester] | 17.4 | 34.8 |  |  | 
4 | CC(C)OC(=O)[C@H](C)NP(=O)(OC[C@@]1(F)O[C@@H](n2ccc(=O)[nH]c2=O)[C@](C)(F)[C@@H]1O)Oc1ccc2ccccc2c1 (stereo partly drawn) [Compound I-3, (S)-2-[[(2S,3S,4R,5R)-5-(2,4-Dioxo-3,4-dihydro-2H-pyrimidin-1-yl)-2,4-difluoro-3-hydroxy-4-methyl-tetrahydro-furan-2-ylmethoxy]-(naphthalen-2-yloxy)-phosphorylamino]-propionic acid isopropyl ester] |  | > 100 |  |  | 
5 | CC(C)OC(=O)[C@H](C)N[P@](=O)(OC[C@@]1(F)O[C@@H](n2cc(Br)c(=O)[nH]c2=O)[C@](C)(F)[C@@H]1O)Oc1ccc2ccccc2c1 [Compound I-13] |  | > 100 | 38.5 |  | 
6 | CC(C)OC(=O)[C@H](C)N[P@@](=O)(OC[C@@]1(F)O[C@@H](n2ccc(=O)[nH]c2=O)[C@](C)(F)[C@@H]1O)Oc1ccc2ccccc2c1 [Compound I-7] |  |  |  | 0.202 | > 100
7 | CC(C)OC(=O)[C@H](C)NP(=O)(OC[C@@]1(F)O[C@@H](n2cc(Br)c(=O)[nH]c2=O)[C@](C)(F)[C@@H]1O)Oc1ccc2ccccc2c1 (stereo partly drawn) [Compound I-16, (S)-2-[[(2S,3S,4R,5R)-5-(5-Bromo-2,4-dioxo-3,4-dihydro-2H-pyrimidin-1-yl)-2,4-difluoro-3-hydroxy-4-methyl-tetrahydro-furan-2-ylmethoxy]-(naphthalen-2-yloxy)-phosphorylamino]-propionic acid isopropyl ester] |  | > 100 | 77.6 |  | 
8 | CC(C)OC(=O)[C@H](C)N[P@@](=O)(OC[C@@]1(F)O[C@@H](n2ccc(=O)[nH]c2=O)[C@](C)(F)[C@@H]1O)Oc1ccccc1 [Compound I-11, (S)-2-{(R)-[(2S,3S,4R,5R)-5-(2,4-Dioxo-3,4-dihydro-2H-pyrimidin-1-yl)-2,4-difluoro-3-hydroxy-4-methyl-tetrahydro-furan-2-ylmethoxy]-phenoxy-phosphorylamino}-propionic acid isopropyl ester] | 1.31 | 95.6 |  |  | 
9 | CC(C)OC(=O)[C@H](C)N[P@@](=O)(OC[C@@]1(F)O[C@@H](n2ccc(=O)[nH]c2=O)[C@](C)(F)[C@@H]1O)Oc1cccc2ccccc12 [Compound I-8, (S)-2-[(R)-[(2S,3S,4R,5R)-5-(2,4-Dioxo-3,4-dihydro-2H-pyrimidin-1-yl)-2,4-difluoro-3-hydroxy-4-methyl-tetrahydro-furan-2-ylmethoxy]-(naphthalen-1-yloxy)-phosphorylamino]-propionic acid isopropyl ester] |  |  |  | 1.03 | > 100
10 | CC(C)OC(=O)[C@H](C)N[P@](=O)(OC[C@@]1(F)O[C@@H](n2ccc(=O)[nH]c2=O)[C@](C)(F)[C@@H]1O)Oc1ccccc1 [Compound I-10, (S)-2-{(S)-[(2S,3S,4R,5R)-5-(2,4-Dioxo-3,4-dihydro-2H-pyrimidin-1-yl)-2,4-difluoro-3-hydroxy-4-methyl-tetrahydro-furan-2-ylmethoxy]-phenoxy-phosphorylamino}-propionic acid isopropyl ester] | 0.171 | > 100 |  |  | 
11 | CC(C)OC(=O)[C@H](C)N[P@](=O)(OC[C@@]1(F)O[C@@H](n2ccc(=O)[nH]c2=O)[C@](C)(F)[C@@H]1O)Oc1ccc2ccccc2c1 [Compound I-6] |  | > 100 | 0.0537 |  | 
12 | CC(C)OC(=O)[C@H](C)NP(=O)(OC[C@@]1(F)O[C@@H](n2ccc(=O)[nH]c2=O)[C@](C)(F)[C@@H]1OP(=O)(N[C@@H](C)C(=O)OC(C)C)Oc1ccc2ccccc2c1)Oc1ccc2ccccc2c1 (stereo partly drawn) [Compound I-4, (S)-2-[[(2S,3S,4R,5R)-5-(2,4-dioxo-3,4-dihydro-2H-pyrimidin-1-yl)-2,4-difluoro-3-[((S)-1-isopropoxycarbonyl-ethylamino)-(naphthalen-2-yloxy)-phosphoryloxy]-4-methyl-tetrahydro-furan-2-ylmethoxy]-(naphthalen-2-yloxy)-phosphorylamino]-propionic acid isopropyl ester] |  | > 100 | 7.19 |  | 
13 | CC(C)OC(=O)[C@H](C)NP(=O)(OC[C@@]1(F)O[C@@H](n2ccc(=O)[nH]c2=O)[C@](C)(F)[C@@H]1O)Oc1ccccc1 (stereo partly drawn) [Compound I-1, (S)-2-{[(2S,3S,4R,5R)-5-(2,4-Dioxo-3,4-dihydro-2H-pyrimidin-1-yl)-2,4-difluoro-3-hydroxy-4-methyl-tetrahydro-furan-2-ylmethoxy]-phenoxy-phosphorylamino}-propionic acid isopropyl ester] |  | > 100 |  |  | 
14 | CC(C)OC(=O)[C@H](C)N[P@@](=O)(OC[C@@]1(F)O[C@@H](n2cc(Br)c(=O)[nH]c2=O)[C@](C)(F)[C@@H]1O)Oc1cccc2ccccc12 [Compound I-14, (S)-2-[(R)-[(2S,3S,4R,5R)-5-(5-Bromo-2,4-dioxo-3,4-dihydro-2H-pyrimidin-1-yl)-2,4-difluoro-3-hydroxy-4-methyl-tetrahydro-furan-2-ylmethoxy]-(naphthalen-1-yloxy)-phosphorylamino]-propionic acid isopropyl ester] |  |  |  | 9.64 | 50.8
15 | CC(C)OC(=O)[C@H](C)N[P@](=O)(OC[C@@]1(F)O[C@@H](n2ccc(=O)[nH]c2=O)[C@](C)(F)[C@@H]1O)Oc1cccc2ccccc12 [Compound I-9, (S)-2-[(S)-[(2S,3S,4R,5R)-5-(2,4-Dioxo-3,4-dihydro-2H-pyrimidin-1-yl)-2,4-difluoro-3-hydroxy-4-methyl-tetrahydro-furan-2-ylmethoxy]-(naphthalen-1-yloxy)-phosphorylamino]-propionic acid isopropyl ester] | 0.0602 | > 100 |  |  | 
16 | CC(C)OC(=O)[C@H](C)N[P@@](=O)(OC[C@@]1(F)O[C@@H](n2cc(Br)c(=O)[nH]c2=O)[C@](C)(F)[C@@H]1O)Oc1ccc2ccccc2c1 [Compound I-15] |  |  |  | 13.2 | 38.5
